Measurements taken from patent US20250295628A1 (priority 2022, published 2025).

How the values were obtained:
[1] = Acute toxicity in SD rats (Example 16); type: in vivo; details: both sexes, rat, in vivo, 3 g/kg, single intravenous injection, read-out: rat MTD, injected
Excerpt: (§1) SPF-grade SD rats, 180˜220 g, 70 males and 70 females, were divided into 7 groups, 10 males and 10 females in each group. Rats in group 1 were intravenous injected with 3 g/kg of D3; rats in group 2 were intravenous injected with 3 g/kg of composition 3; rats in group 3 were intravenous injected with 3 g/kg of composition 3-powder injection; rats in group 4 were orally administrated with 5 g/kg of composition 3-enteric-coated granule; rats in group 5 were orally administrated with 5 g/kg of composition 3-enteric-coated capsule; rats in group 6 were orally administrated with 5 g/kg of composition 3-enteric-coated sustained-release capsule; group 7 was a blank group. After administration, the poisoning situation was observed every day, and no obvious poisoning reaction was found.

SD rats = test: Acute toxicity in SD rats (Example 16); type: in vivo; details: intravenous 3 g/kg, observed 14 days
Excerpt: as §1

[2] = test system: chronic cadmium poisoning model rabbits; test: Cadmium-removing effect by intravenous drip in chronic cadmium poisoning rabbits (Example 18); type: in vivo, New Zealand rabbits; details: for Urine β2-microglobulin values: after four weeks of administration
Excerpt: 205 male New Zealand rabbits, 1.8˜2.2 kg, were randomly divided into a blank control group with 25 rabbits and chronic cadmium poisoning groups with a total of 180 rabbits. The model rabbits were ear margin intravenous injected with a mixed solution containing 1.5 μmol/kg CdCl2 and 30 μmol/kg thioethanol (ME) according to weight, once/d for continuous 5 days, and observed for 35 days. After 35 days, qualified rabbits were selected according to weight, including 18 rabbits in the blank group and 162 rabbits in the poisoning group. The 162 rabbits in the poisoning group were randomly divided into a model group, D3 high-dose group, D3 low-dose group, compound 3B high-dose group, compound 3B low-dose group, composition 3 high-dose group, composition 3 low-dose group, composition 3-powder injection high-dose group, composition 3-powder injection low-dose group, with 18 rabbits in each group. Rabbits in the mode group and the blank group were administered by intravenous drip with the same volume of normal saline, with a rate of 30 drops/min for a dripping time of about 2 h, 1 time/d, 5 d/week. After administration on the last day of week 1, week 2 and week 4, the urine of 0 h˜6 h and the urine of 7 h˜24 h of rabbits were respectively collected; the content of cadmium in blood, urine and kidney, and the cadmium-removing rate from blood and kidney were determined, and the results are shown in Table 6.

[3] = Solid stability: main component content over time under storage conditions (Example 15); type: physicochemical
[4] = Acute toxicity in beagles (Example 16); type: in vivo; details: both sexes, beagle, dog, in vivo, 2 g/kg, single intravenous injection, read-out: dog MTD, injected
Excerpt: (§2) Ordinary grade beagles 8˜10 kg, 70 males and 70 females, were divided into 7 groups, 10 males and 10 females in each group. Beagles in group 1 were intravenous injected with 2 g/kg of D3; beagles in group 2 were intravenous injected with 2 g/kg of composition 3; beagles in group 3 were intravenous injected with 2 g/kg of composition 3-powder injection; beagles in group 4 were orally administrated with 5 g/kg of composition 3-enteric-coated granule; beagles in group 5 were orally administrated with 5 g/kg of composition 3-enteric-coated capsule; beagles in group 6 were orally administrated with 5 g/kg of composition 3-enteric-coated sustained-release capsule; group 7 was a blank group. After administration, the poisoning situation was observed every day, and no obvious poisoning reaction was found.

beagles = test: Acute toxicity in beagles (Example 16); type: in vivo; details: intravenous 2 g/kg, observed 14 days
Excerpt: as §2

[5] = Compatibility stability and pH of 2 mg/ml solutions in normal saline and 5% glucose injection at room temperature (Example 15); type: physicochemical; details: for main component content in solution: 2 mg/ml, room temperature
[6] = Solid stability of compositions 1-11 and compounds 1A-11A: main component content over time under different conditions (Example 37, Table 32); type: physicochemical
Experimental: Compositions 1-11 and compounds 1A-11A were placed at environments of −25° C., 5±3° C., 25±2° C./60±5% RH, 40±2° C./75±5% RH, 60° C. for 0 d, 5 d and 10 d (d refers to day), respectively, and changes of the main component content (the main component content of 0 day was converted to 100%) were measured, the results are shown in Table 32.

[7] = 1 w of treatment, high-dose group (D3 433, composition 3 and composition 3-preparation 108 mg/kg)
[8] = 1 w of treatment, high-dose group (D3 433, compound 3B 83.5, composition 3 and composition 3-preparation 108 mg/kg)
[9] = 1 w of treatment, low-dose group (D3 108, composition 3 and composition 3-preparation 27 mg/kg)
[10] = 1 w of treatment, low-dose group (D3 108, compound 3B 21, composition 3 and composition 3-preparation 27 mg/kg)
[11] = 2 w of treatment, high-dose group (D3 433, composition 3 and composition 3-preparation 108 mg/kg)
[12] = 2 w of treatment, high-dose group (D3 433, compound 3B 83.5, composition 3 and composition 3-preparation 108 mg/kg)
[13] = 2 w of treatment, low-dose group (D3 108, composition 3 and composition 3-preparation 27 mg/kg)
[14] = 2 w of treatment, low-dose group (D3 108, compound 3B 21, composition 3 and composition 3-preparation 27 mg/kg)
[15] = 4 w of treatment, high-dose group (D3 433, composition 3 and composition 3-preparation 108 mg/kg)
[16] = 4 w of treatment, high-dose group (D3 433, compound 3B 83.5, composition 3 and composition 3-preparation 108 mg/kg)
[17] = 4 w of treatment, low-dose group (D3 108, composition 3 and composition 3-preparation 27 mg/kg)
[18] = 4 w of treatment, low-dose group (D3 108, compound 3B 21, composition 3 and composition 3-preparation 27 mg/kg)

## CSCCC(C(=O)[O-])N(CC(O)C(O)C(O)C(O)CO)C(=S)[S][Na].[Na+] [Composition D3, N-(2,3,4,5,6-pentahydroxyhexyl)-(N-disubstitutedsodium formate)-L-sodium methionate]
[1]
  MTD at 14 d: > 3000 mg/kg
SD rats
  acute toxicity observation: no obvious toxicity
[2]; [7]
  Removing rate (cadmium in blood): 13.9%
  Removing rate (cadmium in kidney): 47.8%
[2]; [8]
  Cadmium in blood: 89.45 ± 13.31 µg/L
  Cadmium in kidney: 6.53 ± 2.16 µg/L
[2]; [9]
  Removing rate (cadmium in blood): 6.8%
  Removing rate (cadmium in kidney): 39.7%
[2]; [10]
  Cadmium in blood: 96.60 ± 6.31 µg/L
  Cadmium in kidney: 7.42 ± 3.83 µg/L
[2]; [11]
  Removing rate (cadmium in blood): 16.9%
  Removing rate (cadmium in kidney): 77.0%
[2]; [12]
  Cadmium in blood: 61.39 ± 12.47 µg/L
  Cadmium in kidney: 3.36 ± 1.08 µg/L
[2]; [13]
  Removing rate (cadmium in blood): 0.07%
  Removing rate (cadmium in kidney): 54.0%
[2]; [14]
  Cadmium in blood: 68.54 ± 13.39 µg/L
  Cadmium in kidney: 5.92 ± 2.01 µg/L
[2]; [15]
  Removing rate (cadmium in blood): 35.8%
  Removing rate (cadmium in kidney): 91.7%
[2]; [16]
  Cadmium in blood: 17.67 ± 6.84 µg/L
  Cadmium in kidney: 1.85 ± 0.52 µg/L
[2]; [17]
  Removing rate (cadmium in blood): 11.1%
  Removing rate (cadmium in kidney): 75.8%
[2]; [18]
  Cadmium in blood: 24.34 ± 8.38 µg/L
  Cadmium in kidney: 3.93 ± 1.16 µg/L
[2]; high-dose group (D3 433, compound 3B 83.5, composition 3 and composition 3-preparation 108 mg/kg)
  Urine β2-microglobulin values: 161.64 ± 45.18 ng/L
[2]; low-dose group (D3 108, compound 3B 21, composition 3 and composition 3-preparation 27 mg/kg)
  Urine β2-microglobulin values: 197.15 ± 31.66 ng/L
[3]; 5 ± 3° C., 0 d (converted to 100%)
  main component content: 100%
[3]; 5 ± 3° C., 5 d
  main component content: 97.3%
[3]; 5 ± 3° C., 10 d
  main component content: 96.5%
[3]; 5 ± 3° C., 30 d
  main component content: 90.8%
[3]; 5±3° C., 180 d
  decrease of the main component content / stability on 180 d: about 18.8%
  main component content: 81.2%
[3]; 25 ± 2° C./60 ± 5% RH, 0 d (converted to 100%)
  main component content: 100%
[3]; 25 ± 2° C./60 ± 5% RH, 5 d
  main component content: 95.1%
[3]; 25 ± 2° C./60 ± 5% RH, 10 d
  main component content: 90.3%
[3]; 25 ± 2° C./60 ± 5% RH, 30 d
  main component content: 84.6%
[3]; 25 ± 2° C./60 ± 5% RH, 180 d
  main component content: 64.2%
[3]; 40 ± 2° C./75 ± 5% RH, 0 d (converted to 100%)
  main component content: 100%
[3]; 40 ± 2° C./75 ± 5% RH, 5 d
  main component content: 91.2%
[3]; 40 ± 2° C./75 ± 5% RH, 10 d
  main component content: 84.3%
[3]; 40 ± 2° C./75 ± 5% RH, 30 d
  main component content: 60.3%
[3]; −25° C., 0 d (converted to 100%)
  main component content: 100%
[3]; −25° C., 5 d
  main component content: 101.2%
[3]; −25° C., 10 d
  main component content: 99.8%
[3]; −25° C., 30 d
  main component content: 100.7%
[3]; −25° C., 180 d
  main component content: 99.9%
[4]
  MTD at 14 d: > 2000 mg/kg
beagles
  acute toxicity observation: no obvious toxicity
[5]; 2 mg/ml solution in 5% glucose injection
  pH: 9.7
[5]; 2 mg/ml solution in normal saline
  pH: 9.7
[5]; 5% glucose injection, 0 h (converted to 100%)
  main component content in solution: 100%
[5]; 5% glucose injection, 1 h
  main component content in solution: 90%
[5]; 5% glucose injection, 2 h
  main component content in solution: 81%
[5]; 5% glucose injection, 4 h
  main component content in solution: 69%
[5]; 5% glucose injection, 8 h
  main component content in solution: 54%
[5]; normal saline, 0 h (converted to 100%)
  main component content in solution: 100%
[5]; normal saline, 1 h
  main component content in solution: 95%
[5]; normal saline, 2 h
  main component content in solution: 83%
[5]; normal saline, 4 h
  main component content in solution: 73%
[5]; normal saline, 8 h
  main component content in solution: 71%
[6]; 5 ± 3° C., 0 d (0 day content converted to 100%)
  main component content: 100%
[6]; 5 ± 3° C., 5 d
  main component content: 97.3%
[6]; 5 ± 3° C., 10 d
  main component content: 96.5%
[6]; 25 ± 2° C./60 ± 5% RH, 0 d (0 day content converted to 100%)
  main component content: 100%
[6]; 25 ± 2° C./60 ± 5% RH, 5 d
  main component content: 95.1%
[6]; 25 ± 2° C./60 ± 5% RH, 10 d
  main component content: 90.3%
[6]; 40 ± 2° C./75 ± 5% RH, 0 d (0 day content converted to 100%)
  main component content: 100%
[6]; 40 ± 2° C./75 ± 5% RH, 5 d
  main component content: 91.2%
[6]; 40 ± 2° C./75 ± 5% RH, 10 d
  main component content: 84.2%
[6]; 60° C., 0 d (0 day content converted to 100%)
  main component content: 100%
[6]; 60° C., 5 d
  main component content: 65.6%
[6]; 60° C., 10 d
  main component content: 64.2%
[6]; −25° C., 0 d (0 day content converted to 100%)
  main component content: 100%
[6]; −25° C., 5 d
  main component content: 101.2%
[6]; −25° C., 10 d
  main component content: 99.8%
